Reference: patent US7560229B2, “Methods of use of the enzymes of mycothiol synthesis” (priority 2002, dated 2009)
In brackets after ≈: the same amount, converted by molar mass. Like-named read-outs stand apart in the source and are kept apart here.

Experiments:
[1] = system: M. smegmatis transposon mutant Tn2 (MshC deficient); assay type: cell-based; details: Tn2, from MIC
Protocol: (§1) To test this hypothesis, Tn1, Tn2, and I64 were grown on PBT plates supplemented with increasing amounts of the alkylating agents mBBr, iodoacetamide, and 1-chloro-2,4-dinitrobenzene (CDNB). The alkylating agents were poured into the molten agar.

[2] = system: M. smegmatis transposon mutant Tn1 (MshC deficient); assay type: cell-based; details: Tn1, from MIC
Protocol: as §1

[3] = target: M. smegmatis Cys:GlcN-Ins ligase (MshC) (Mycolicibacterium smegmatis, UniProt A0QZY0); assay: ATP-dependent Cys:GlcN-Ins ligase assay, substrate kinetics; details: [ATP]=1 mM, [Cys]=100 μM
Protocol: (§4) A minor modification of the protocol described by Anderberg et al (supra) was used for routine measurement of ATP-dependent ligase activity. The enzyme activity was assayed in a final volume of 25 μL containing 12.5 μL of the ligase in different dilutions, 50 μM GlcN-Ins, 100 μM Cys (Calbiochem), 1 mM ATP (Sigma), 1 mM MgCl2 (Fisher), 1 mM DTT (Calbiochem), 25 mM N-2-hydroxyethylpiperazine-N′-2-ethanesulfonic acid (HEPES) (Sigma), pH 7.5, and 35 μM each of the protease inhibitors (Sigma) N-α-p-tosyl-L-phenylalanylchloromethyl ketone and N-α-p-tosyl-L-lysinechloromethyl ketone. The mixture was incubated at 37° C. for 30 min. The assay was terminated by addition of 25 μL of 8 mM mBBr in acetonitrile and heating the mixture at 60° C. for 5 min to derivatize the thiols. The derivatization was quenched with the addition of 150 μl of 10 mM methanesulfonic acid and vortexing. HPLC analysis of CySmB-GlcN-Ins and CySmB was carried out by HPLC using a Beckman Ultrasphere IP (250×4.6 mm) analytical column fitted with a Brownley OD-GU 5 μ C-18 cartridge using the following linear gradients: 0 min., 100% A (0.1% TFA in water); 10 min, 100% A; 30 min, 80% A; 33 min, 100% B (7.5% methanol in acetonitrile); 36 min, 100% B; 38 min, 100% A; 60 min, 100% A (reinjection). The flow rate was 1 mL/min. and the fluorescence detection was accomplished with a 370 nm excitation filter and a 418-700 nm emission filter. The Vmax and Km values were calculated by least-squares analysis of Eadie-Hofstee plots with initial rate data using KaleidaGraph 3.5 (Synergy Software).
N[C@@H](CS)C(=O)O = assay: purified protein, by the assay type; details: other: [ATP]=1 mM, [GlcN-Ins]=300 μM, Cys 5-400 μM; pH 7.5
Protocol: as §4

M. smegmatis mutant I64 [4] = details: I64, FIG. 6
Protocol: (§2) Peroxide sensitivity was determined by incubating cells (2.5×10^7 per ml) at 37° C. in Middlebrook 7H9 medium with 0.4% glucose and 0.05% TWEEN® 80 containing hydrogen peroxide at the desired level for 2 hours with shaking. Cells were diluted in fresh medium and plated on 7H10 agar. Colonies were counted when they achieved a diameter of 1-2 mm, which required 4-5 days for the wild type strain and up to 10 days for MSH-deficient mutant strains.

M. smegmatis mutant Tn1 [5] = system: M. smegmatis mutant Tn1
Protocol: as §2

[6] = system: M. smegmatis mc^2155 (wild type)
Protocol: as §2

M. smegmatis mutant Tn2 [7] = system: M. smegmatis mutant Tn2
Protocol: as §2

[8] = system: M. smegmatis mc^2155 (wild type); assay: Disk assay, redox cycling agents, zone of inhibition; assay type: cell-based
Protocol: (§3) To determine sensitivity to redox cycling agents, disk assays were performed. Briefly, cells were grown to mid-log phase and a lawn of cells was plated onto PBT or LB plates supplemented with appropriate antibiotics. Various amounts of redox-cycling agents plumbagin, and […] menadione and nitrofurantoin were added to the disk in 10 μl volume and allowed to dry. The disks were placed onto the lawn of cells and incubated 2-3 days.

M. smegmatis mutant I64 [9] = assay type: cell-based
Protocol: as §3

M. smegmatis mutant Tn1 [10] = assay type: cell-based
Protocol: as §3

M. smegmatis mutant Tn2 [11] = assay type: cell-based
Protocol: as §3

[12] = system: M. smegmatis chemical mutant I64 (MshC deficient); assay type: cell-based; details: I64, from MIC
Protocol: as §1

[13] = system: M. smegmatis complemented mshA::Tn5 (mshA::Tn5 pAL0486); assay: Isoniazid MIC by Estrip; assay type: cell-based; details: Mycolicibacterium smegmatis
M. smegmatis mutant 49 = details: cited from earlier work
[14] = system: M. smegmatis transposon mutant mshA::Tn5; assay: Isoniazid MIC by Estrip; assay type: cell-based; details: Mycolicibacterium smegmatis
M. smegmatis mutant I64 [15] = assay: Antibiotic sensitivity test (MIC); assay type: cell-based
M. smegmatis mc^2155 = details: mc^2155, plating on antibiotic containing media, found earlier; cited from earlier work
[16] = system: M. smegmatis parent strain mc^2155; assay: Isoniazid MIC by Estrip; assay type: cell-based; details: Mycolicibacterium smegmatis; mc^2155, Estrip, 2-3 days at 37° C.
[17] = system: M. smegmatis chemical mutant 49; assay: Isoniazid MIC by Estrip; assay type: cell-based; details: Mycolicibacterium smegmatis
[18] = system: M. smegmatis complemented strain 49 (49::pAL0486); assay: Isoniazid MIC by Estrip; assay type: cell-based; details: Mycolicibacterium smegmatis

Sequence of M. smegmatis Cys:GlcN-Ins ligase (MshC) (A0QZY0 whole entry): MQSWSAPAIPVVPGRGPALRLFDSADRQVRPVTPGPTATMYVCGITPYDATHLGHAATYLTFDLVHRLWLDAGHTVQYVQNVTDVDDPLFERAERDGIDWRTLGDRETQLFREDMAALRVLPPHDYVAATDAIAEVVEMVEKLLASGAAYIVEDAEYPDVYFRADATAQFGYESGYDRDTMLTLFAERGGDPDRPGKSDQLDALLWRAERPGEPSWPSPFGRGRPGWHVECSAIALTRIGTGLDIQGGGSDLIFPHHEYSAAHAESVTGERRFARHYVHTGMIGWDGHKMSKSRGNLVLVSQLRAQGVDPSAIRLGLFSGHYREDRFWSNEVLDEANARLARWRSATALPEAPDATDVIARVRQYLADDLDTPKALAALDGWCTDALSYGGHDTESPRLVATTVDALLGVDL

## O=[N+]([O-])c1ccc(Cl)c([N+](=O)[O-])c1 [CDNB, 1-chloro-2,4-dinitrobenzene]
[1]
  increase in sensitivity compared to wild type mc^2155: 2-3 fold
[2]
  increase in sensitivity compared to wild type mc^2155: 2-3 fold

## N[C@H]1[C@@H](OC2[C@H](O)[C@H](O)C(O)[C@H](O)[C@H]2O)O[C@H](CO)[C@@H](O)[C@@H]1O (stereo partly drawn) [GlcN-Ins, 1D-myo-inosityl 2-amino-2-deoxy-α-D-glucopyranoside]
[3]
  Vmax (GlcN-Ins varied): 90 ± 7 nmol/min/mg
[3]; read-out: apparent Km for GlcN-Ins, GlcN-Ins 5-600 μM
  Km: 72 ± 9 µM

## M. smegmatis Cys:GlcN-Ins ligase (MshC) (Mycolicibacterium smegmatis MC2 155)
N[C@@H](CS)C(=O)O
  Km: 40 ± 3 µM
  Vmax: 83 ± 3 nmol/min/mg

## OO [hydrogen peroxide]
M. smegmatis mutant I64 [4]
  tolerance to peroxide stress: intermediate between wild type mc^2155 and the transposon mutants
M. smegmatis mutant Tn1 [5]; Tn1, 2 hours at 37° C., FIG. 6
  H2O2 concentration the strain is unable to tolerate: ≤ 1 MM
M. smegmatis mutant Tn1 [5]; Tn1, FIG. 6
  times more sensitive to hydrogen peroxide than the wild type strain: about 10 times
[6]
  H2O2 concentration at which the strain can survive: 10 mM
M. smegmatis mutant Tn2 [7]; Tn2, 2 hours at 37° C., FIG. 6
  H2O2 concentration the strain is unable to tolerate: ≤ 1 MM
M. smegmatis mutant Tn2 [7]; Tn2, FIG. 6
  times more sensitive to hydrogen peroxide than the wild type strain: about 10 times

## CC1=CC(=O)c2ccccc2C1=O [Menadione, menadione]
[8]; 0.1 μmol agent on disk
  Zone of Inhibition: 9.7 ± 0.3 mm
[8]; 0.5 μmol agent on disk
  Zone of Inhibition: 19.7 ± 0.9 mm
M. smegmatis mutant I64 [9]; I64, 0.1 μmol agent on disk
  Zone of Inhibition: 8.7 ± 0.7 mm
M. smegmatis mutant I64 [9]; I64, 0.5 μmol agent on disk
  Zone of Inhibition: 26.7 ± 0.9 mm
M. smegmatis mutant Tn1 [10]; Tn1, 0.1 μmol agent on disk
  Zone of Inhibition: 20.7 ± 3.8 mm
M. smegmatis mutant Tn1 [10]; Tn1, 0.5 μmol agent on disk
  Zone of Inhibition: 31.3 ± 1.3 mm
M. smegmatis mutant Tn2 [11]; Tn2, 0.1 μmol agent on disk
  Zone of Inhibition: 15.3 ± 2.0 mm
M. smegmatis mutant Tn2 [11]; Tn2, 0.5 μmol agent on disk
  Zone of Inhibition: 16.4 ± 1.9 mm

## Cc1c(C)n2c(CBr)c(C)c(=O)n2c1=O [mBBr, monobromobimane]
[12]
  increase in sensitivity compared to wild type mc^2155: more susceptible
[1]
  increase in sensitivity compared to wild type mc^2155: 4 fold
[2]
  increase in sensitivity compared to wild type mc^2155: 4 fold

## O=C1CN(/N=C/c2ccc([N+](=O)[O-])o2)C(=O)N1 [Nitrofurantoin, nitrofurantoin]
[8]; 0.5 μmol agent on disk
  Zone of Inhibition: 4.7 ± 0.3 mm
[8]; 1.0 μmol agent on disk
  Zone of Inhibition: 6.0 ± 0.6 mm
M. smegmatis mutant I64 [9]; I64, 0.5 μmol agent on disk
  Zone of Inhibition: 5.0 ± 0.6 mm
M. smegmatis mutant I64 [9]; I64, 1.0 μmol agent on disk
  Zone of Inhibition: 8.7 ± 0.3 mm
M. smegmatis mutant Tn1 [10]; Tn1, 0.5 μmol agent on disk
  Zone of Inhibition: 10.7 ± 2.6 mm
M. smegmatis mutant Tn1 [10]; Tn1, 1.0 μmol agent on disk
  Zone of Inhibition: 14.0 ± 2.7 mm
M. smegmatis mutant Tn2 [11]; Tn2, 1.0 μmol agent on disk
  Zone of Inhibition: 35.0 ± 3.6 mm

## CC1=CC(=O)c2c(O)cccc2C1=O [Plumbagin, plumbagin]
[8]; 0.005 μmol agent on disk
  Zone of Inhibition: 11.0 ± 1.0 mm
[8]; 0.01 μmol agent on disk
  Zone of Inhibition: 13.5 ± 0.5 mm
M. smegmatis mutant I64 [9]; I64, 0.005 μmol agent on disk
  Zone of Inhibition: 9.3 ± 0.9 mm
M. smegmatis mutant I64 [9]; I64, 0.01 μmol agent on disk
  Zone of Inhibition: 13.3 ± 1.9 mm
M. smegmatis mutant Tn1 [10]; Tn1, 0.005 μmol agent on disk
  Zone of Inhibition: 17.0 ± 0.6 mm
M. smegmatis mutant Tn1 [10]; Tn1, 0.01 μmol agent on disk
  Zone of Inhibition: 23.0 ± 1.2 mm
M. smegmatis mutant Tn2 [11]; Tn2, 0.005 μmol agent on disk
  Zone of Inhibition: 15.0 ± 0.0 mm
M. smegmatis mutant Tn2 [11]; Tn2, 0.01 μmol agent on disk
  Zone of Inhibition: 23.0 ± 1.0 mm

## NC(=O)CI [Iodoacetamide, iodoacetamide]
[12]
  increase in sensitivity compared to wild type mc^2155: two-fold
[1]
  increase in sensitivity compared to wild type mc^2155: 5 fold
[2]
  increase in sensitivity compared to wild type mc^2155: two-fold

## NNC(=O)c1ccncc1 [Isoniazid, isoniazid]
[13]
  MIC: 2.7 µg/mL (≈ 19.7 µM)
M. smegmatis mutant 49; mutant 49, plating on antibiotic containing media, found earlier
  MIC: > 50 µg/mL
M. smegmatis mutant 49; strain 49 (Newton et al. 1999)
  isoniazid concentration to which strain 49 is resistant: 100 μg isoniazid/ml
[14]
  MIC: > 250 µg/mL
M. smegmatis mutant I64 [15]
  fold greater resistance than the wild type: 16 fold
M. smegmatis mc^2155
  MIC: 2 µg/mL (≈ 14.6 µM)
[16]
  MIC: 1 µg/mL (≈ 7.29 µM)
[17]
  MIC: > 250 µg/mL
[18]
  MIC: 28 µg/mL (≈ 204 µM)

## CN(C)C(=O)/N=N/C(=O)N(C)C [Diamide, diamide]
[12]
  increase in sensitivity compared to wild type mc^2155: doubled
[1]
  increase in sensitivity compared to wild type mc^2155: greater than 10 fold
[2]
  increase in sensitivity compared to wild type mc^2155: greater than 10 fold
